In ChEMBL document CHEMBL5058645, “Data for DCP probe JNJ-6204” (2022):

Tests used:
[1] = target: AP2-associated protein kinase 1 (Homo sapiens) (UniProt Q2M2I8); assay: AAK1(h) Kinase panel; settings: Compound concentration 1.0 uM, tested as the 2H-labelled form
[2] = target: Tyrosine-protein kinase ABL1 (Homo sapiens) (UniProt P00519); assay: Abl(h) Kinase panel; settings: Compound concentration 1.0 uM, tested as the 2H-labelled form
[3] = target: Serine/threonine-protein kinase A-Raf (Homo sapiens) (UniProt P10398); assay: A-Raf(h) Kinase panel; settings: Compound concentration 1.0 uM, tested as the 2H-labelled form
[4] = target: NUAK family SNF1-like kinase 1 (Homo sapiens) (UniProt O60285); assay: ARK5(h) Kinase panel; settings: Compound concentration 1.0 uM, tested as the 2H-labelled form
[5] = target: Aurora kinase B (Homo sapiens) (UniProt Q96GD4); assay: Aurora-B(h) Kinase panel; settings: Compound concentration 1.0 uM, tested as the 2H-labelled form
[6] = target: Tyrosine-protein kinase BTK (Homo sapiens) (UniProt Q06187); assay: BTK(h) Kinase panel; settings: Compound concentration 1.0 uM, tested as the 2H-labelled form
[7] = target: Calcium/calmodulin-dependent protein kinase type 1G (Homo sapiens) (UniProt Q96NX5); assay: CaMKIgamma(h) Kinase panel; settings: Compound concentration 1.0 uM, tested as the 2H-labelled form
[8] = target: Calcium/calmodulin-dependent protein kinase type II subunit gamma (Homo sapiens) (UniProt Q13555); assay: CaMKIIgamma(h) Kinase panel; settings: Compound concentration 1.0 uM, tested as the 2H-labelled form
[9] = target: Calcium/calmodulin-dependent protein kinase type IV (Homo sapiens) (UniProt Q16566); assay: CaMKIV(h) Kinase panel; settings: Compound concentration 1.0 uM, tested as the 2H-labelled form
[10] = target: Calcium/calmodulin-dependent protein kinase kinase 1 (Homo sapiens) (UniProt Q8N5S9); assay: CaMKK1(h) Kinase panel; settings: Compound concentration 1.0 uM, tested as the 2H-labelled form
[11] = target: Cyclin-dependent kinase-like 3 (Homo sapiens) (UniProt Q8IVW4); assay: CDKL3(h) Kinase panel; settings: Compound concentration 1.0 uM, tested as the 2H-labelled form
[12] = target: Casein kinase I isoform epsilon (Homo sapiens, UniProt P49674); assay: CK1epsilon(h) Kinase panel; settings: Compound concentration 1.0 uM, tested as the 2H-labelled form
Homo sapiens = species: Homo sapiens; assay: CK2(h) Kinase panel; settings: Compound concentration 1.0 uM, tested as the 2H-labelled form
[13] = target: Mast/stem cell growth factor receptor Kit (Homo sapiens) (UniProt P10721); assay: cKit(h) Kinase panel; settings: Compound concentration 1.0 uM, tested as the 2H-labelled form
[14] = target: Serine/threonine-protein kinase DCLK1 (Homo sapiens) (UniProt O15075); assay: DCAMKL1(h) Kinase panel; settings: Compound concentration 1.0 uM, tested as the 2H-labelled form
[15] = target: Dual specificity tyrosine-phosphorylation-regulated kinase 1A (Homo sapiens) (UniProt Q13627); assay: DYRK1A(h) Kinase panel; settings: Compound concentration 1.0 uM, tested as the 2H-labelled form
[16] = target: Epidermal growth factor receptor (Homo sapiens) (UniProt P00533); assay: EGFR(h) Kinase panel; settings: Compound concentration 1.0 uM, tested as the 2H-labelled form
[17] = target: Ephrin type-A receptor 2 (Homo sapiens) (UniProt P29317); assay: EphA2(h) Kinase panel; settings: Compound concentration 1.0 uM, tested as the 2H-labelled form
[18] = target: Ephrin type-A receptor 4 (Homo sapiens) (UniProt P54764); assay: EphA4(h) Kinase panel; settings: Compound concentration 1.0 uM, tested as the 2H-labelled form
[19] = target: Ephrin type-B receptor 3 (Homo sapiens) (UniProt P54753); assay: EphB3(h) Kinase panel; settings: Compound concentration 1.0 uM, tested as the 2H-labelled form
[20] = target: Eukaryotic translation initiation factor 2-alpha kinase 1 (Homo sapiens) (UniProt Q9BQI3); assay: HRI(h) Kinase panel; settings: Compound concentration 1.0 uM, tested as the 2H-labelled form
[21] = target: Insulin-like growth factor 1 receptor (Homo sapiens) (UniProt P08069); assay: IGF-1R(h), activated Kinase panel; settings: Compound concentration 1.0 uM, tested as the 2H-labelled form
[22] = target: Interleukin-1 receptor-associated kinase 1 (Homo sapiens) (UniProt P51617); assay: IRAK1(h) Kinase panel; settings: Compound concentration 1.0 uM, tested as the 2H-labelled form
[23] = target: Vascular endothelial growth factor receptor 2 (Homo sapiens) (UniProt P35968); assay: KDR(h) Kinase panel; settings: Compound concentration 1.0 uM, tested as the 2H-labelled form
[24] = target: Serine/threonine-protein kinase LATS1 (Homo sapiens) (UniProt O95835); assay: LATS1(h) Kinase panel; settings: Compound concentration 1.0 uM, tested as the 2H-labelled form
[25] = target: Leukocyte tyrosine kinase receptor (Homo sapiens) (UniProt P29376); assay: LTK(h) Kinase panel; settings: Compound concentration 1.0 uM, tested as the 2H-labelled form
[26] = target: Mitogen-activated protein kinase kinase kinase 3 (Homo sapiens) (UniProt Q99759); assay: MEKK3(h) Kinase panel; settings: Compound concentration 1.0 uM, tested as the 2H-labelled form
[27] = target: Dual specificity mitogen-activated protein kinase kinase 3 (Homo sapiens) (UniProt P46734); assay: MKK3(h) Kinase panel; settings: Compound concentration 1.0 uM, tested as the 2H-labelled form
[28] = target: SRSF protein kinase 3 (Homo sapiens) (UniProt Q9UPE1); assay: MSSK1(h) Kinase panel; settings: Compound concentration 1.0 uM, tested as the 2H-labelled form
[29] = target: Serine/threonine-protein kinase PAK 5 (Homo sapiens) (UniProt Q9P286); assay: PAK5(h) Kinase panel; settings: Compound concentration 1.0 uM, tested as the 2H-labelled form
[30] = target: PAS domain-containing serine/threonine-protein kinase (Homo sapiens) (UniProt Q96RG2); assay: PASK(h) Kinase panel; settings: Compound concentration 1.0 uM, tested as the 2H-labelled form
[31] = target: Platelet-derived growth factor receptor alpha (Homo sapiens) (UniProt P16234); assay: PDGFRalpha(h) Kinase panel; settings: Compound concentration 1.0 uM, tested as the 2H-labelled form
[32] = target: Protein kinase C delta type (Homo sapiens) (UniProt Q05655); assay: PKCdelta (h) Kinase panel; settings: Compound concentration 1.0 uM, tested as the 2H-labelled form
[33] = target: cGMP-dependent protein kinase 1 (Homo sapiens) (UniProt Q13976); assay: PKG1beta (h) Kinase panel; settings: Compound concentration 1.0 uM, tested as the 2H-labelled form
[34] = target: Interferon-induced, double-stranded RNA-activated protein kinase (Homo sapiens) (UniProt P19525); assay: PKR(h) Kinase panel; settings: Compound concentration 1.0 uM, tested as the 2H-labelled form
[35] = target: Serine/threonine-protein kinase PLK4 (Homo sapiens) (UniProt O00444); assay: Plk4(h) Kinase panel; settings: Compound concentration 1.0 uM, tested as the 2H-labelled form
[36] = target: Proto-oncogene tyrosine-protein kinase receptor Ret (Homo sapiens) (UniProt P07949); assay: Ret(h) Kinase panel; settings: Compound concentration 1.0 uM, tested as the 2H-labelled form
[37] = target: Macrophage-stimulating protein receptor (Homo sapiens) (UniProt Q04912); assay: Ron(h) Kinase panel; settings: Compound concentration 1.0 uM, tested as the 2H-labelled form
[38] = target: Ribosomal protein S6 kinase alpha-3 (Homo sapiens) (UniProt P51812); assay: Rsk2(h) Kinase panel; settings: Compound concentration 1.0 uM, tested as the 2H-labelled form
[39] = target: Serine/threonine-protein kinase SIK1 (Homo sapiens) (UniProt P57059); assay: SIK(h) Kinase panel; settings: Compound concentration 1.0 uM, tested as the 2H-labelled form
[40] = target: Serine/threonine-protein kinase PLK2 (Homo sapiens) (UniProt Q9NYY3); assay: Snk(h) Kinase panel; settings: Compound concentration 1.0 uM, tested as the 2H-labelled form
[41] = target: Serine/threonine-protein kinase TAO2 (Homo sapiens) (UniProt Q9UL54); assay: TAO2(h) Kinase panel; settings: Compound concentration 1.0 uM, tested as the 2H-labelled form
[42] = target: TGF-beta receptor type-1 (Homo sapiens) (UniProt P36897); assay: TGFBR1(h) Kinase panel; settings: Compound concentration 1.0 uM, tested as the 2H-labelled form
[43] = target: TRAF2 and NCK-interacting protein kinase (Homo sapiens, UniProt Q9UKE5); assay: TNIK(h) Kinase panel; settings: Compound concentration 1.0 uM, tested as the 2H-labelled form
[44] = target: Dual specificity protein kinase TTK (Homo sapiens) (UniProt P33981); assay: TTK(h) Kinase panel; settings: Compound concentration 1.0 uM, tested as the 2H-labelled form
[45] = target: Death-associated protein kinase 3 (Homo sapiens) (UniProt O43293); assay: ZIPK(h) Kinase panel; settings: Compound concentration 1.0 uM, tested as the 2H-labelled form
[46] = target: Phosphatidylinositol 5-phosphate 4-kinase type-2 alpha (Homo sapiens) (UniProt P48426); assay: PIP4K2a(h) Kinase panel; settings: Compound concentration 1.0 uM, tested as the 2H-labelled form
[47] = target: 5-hydroxytryptamine receptor 1D (Homo sapiens) (UniProt P28221); settings: Compound concentration 10.0 uM, tested as the 2H-labelled form
[48] = target: Muscarinic acetylcholine receptor M3 (Homo sapiens) (UniProt P20309); settings: Compound concentration 10.0 uM, tested as the 2H-labelled form
[49] = target: Muscarinic acetylcholine receptor M5 (Homo sapiens) (UniProt P08912); settings: Compound concentration 10.0 uM, tested as the 2H-labelled form
[50] = target: Sigma intracellular receptor 2 (Homo sapiens) (UniProt Q5BJF2); settings: Compound concentration 10.0 uM, tested as the 2H-labelled form
[51] = target: Sigma non-opioid intracellular receptor 1 (Homo sapiens) (UniProt Q99720); settings: Compound concentration 10.0 uM, tested as the 2H-labelled form

Measured: inhibition

Sequence of Calcium/calmodulin-dependent protein kinase type 1G (Homo sapiens) (Q96NX5 whole entry): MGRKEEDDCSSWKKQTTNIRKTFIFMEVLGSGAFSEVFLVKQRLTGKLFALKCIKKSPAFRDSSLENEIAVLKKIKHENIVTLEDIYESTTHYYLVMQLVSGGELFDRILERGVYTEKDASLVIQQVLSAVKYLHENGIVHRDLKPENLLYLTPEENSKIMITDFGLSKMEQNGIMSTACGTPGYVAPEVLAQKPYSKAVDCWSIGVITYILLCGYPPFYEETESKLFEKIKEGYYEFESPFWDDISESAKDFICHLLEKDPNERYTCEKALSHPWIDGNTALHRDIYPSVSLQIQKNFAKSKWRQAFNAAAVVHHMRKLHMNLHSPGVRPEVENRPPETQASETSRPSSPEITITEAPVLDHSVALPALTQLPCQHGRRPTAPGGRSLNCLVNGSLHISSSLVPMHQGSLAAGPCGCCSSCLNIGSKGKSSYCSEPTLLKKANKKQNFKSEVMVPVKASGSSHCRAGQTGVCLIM
Sequence of Muscarinic acetylcholine receptor M5 (Homo sapiens) (P08912 whole entry): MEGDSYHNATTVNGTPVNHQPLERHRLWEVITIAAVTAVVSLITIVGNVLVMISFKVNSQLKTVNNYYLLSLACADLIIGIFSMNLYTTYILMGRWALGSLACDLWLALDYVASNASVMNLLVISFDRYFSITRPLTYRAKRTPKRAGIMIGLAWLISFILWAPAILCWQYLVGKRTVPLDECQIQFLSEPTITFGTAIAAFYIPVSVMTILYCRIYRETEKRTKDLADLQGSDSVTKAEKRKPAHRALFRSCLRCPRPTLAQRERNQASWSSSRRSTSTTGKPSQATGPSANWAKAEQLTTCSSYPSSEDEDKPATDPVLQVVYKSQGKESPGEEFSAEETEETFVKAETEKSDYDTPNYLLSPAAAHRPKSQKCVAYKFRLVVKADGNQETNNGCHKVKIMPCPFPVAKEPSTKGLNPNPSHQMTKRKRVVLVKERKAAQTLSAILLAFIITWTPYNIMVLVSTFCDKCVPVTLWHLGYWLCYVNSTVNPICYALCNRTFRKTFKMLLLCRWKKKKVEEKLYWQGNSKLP
Sequence of Ephrin type-A receptor 4 (Homo sapiens) (P54764 whole entry): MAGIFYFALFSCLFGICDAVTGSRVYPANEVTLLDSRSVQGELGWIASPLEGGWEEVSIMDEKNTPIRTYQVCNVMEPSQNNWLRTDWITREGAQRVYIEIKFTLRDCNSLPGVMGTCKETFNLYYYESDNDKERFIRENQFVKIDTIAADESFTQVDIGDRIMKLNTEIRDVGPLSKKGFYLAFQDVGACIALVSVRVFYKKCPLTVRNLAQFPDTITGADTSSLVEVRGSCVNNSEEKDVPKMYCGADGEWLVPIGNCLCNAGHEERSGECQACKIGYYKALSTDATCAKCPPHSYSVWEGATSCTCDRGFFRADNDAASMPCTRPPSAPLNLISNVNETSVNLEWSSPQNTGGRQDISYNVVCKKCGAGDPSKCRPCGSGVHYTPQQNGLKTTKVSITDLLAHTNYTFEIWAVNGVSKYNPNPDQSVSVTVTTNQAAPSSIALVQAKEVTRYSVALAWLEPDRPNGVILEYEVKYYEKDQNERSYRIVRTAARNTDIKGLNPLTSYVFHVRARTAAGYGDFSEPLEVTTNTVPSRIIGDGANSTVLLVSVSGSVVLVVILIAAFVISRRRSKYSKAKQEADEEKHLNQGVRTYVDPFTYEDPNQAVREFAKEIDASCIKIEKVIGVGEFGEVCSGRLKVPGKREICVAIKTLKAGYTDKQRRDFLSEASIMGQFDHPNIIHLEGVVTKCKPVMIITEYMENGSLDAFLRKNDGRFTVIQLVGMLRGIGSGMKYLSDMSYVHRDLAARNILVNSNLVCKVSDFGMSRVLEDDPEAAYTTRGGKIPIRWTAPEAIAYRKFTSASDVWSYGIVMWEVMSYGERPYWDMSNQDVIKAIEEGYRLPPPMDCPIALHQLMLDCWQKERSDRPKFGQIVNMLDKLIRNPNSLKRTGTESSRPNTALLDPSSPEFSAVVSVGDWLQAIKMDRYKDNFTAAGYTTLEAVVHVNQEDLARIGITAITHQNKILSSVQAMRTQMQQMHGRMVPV
Sequence of Calcium/calmodulin-dependent protein kinase type IV (Homo sapiens) (Q16566 whole entry): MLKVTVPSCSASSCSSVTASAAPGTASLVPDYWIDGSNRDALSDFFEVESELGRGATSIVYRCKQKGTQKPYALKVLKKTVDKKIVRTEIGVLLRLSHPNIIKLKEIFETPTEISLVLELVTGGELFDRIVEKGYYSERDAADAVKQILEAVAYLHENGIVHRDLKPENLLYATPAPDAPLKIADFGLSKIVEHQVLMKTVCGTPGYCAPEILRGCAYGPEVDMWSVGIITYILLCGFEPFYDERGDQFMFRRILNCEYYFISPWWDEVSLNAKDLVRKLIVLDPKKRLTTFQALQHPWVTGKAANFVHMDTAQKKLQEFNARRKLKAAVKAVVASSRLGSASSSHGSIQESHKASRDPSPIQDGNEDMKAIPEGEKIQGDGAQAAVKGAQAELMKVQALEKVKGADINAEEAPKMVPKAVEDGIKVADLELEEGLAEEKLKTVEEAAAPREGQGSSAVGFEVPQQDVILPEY
Sequence of Ribosomal protein S6 kinase alpha-3 (Homo sapiens) (P51812 whole entry): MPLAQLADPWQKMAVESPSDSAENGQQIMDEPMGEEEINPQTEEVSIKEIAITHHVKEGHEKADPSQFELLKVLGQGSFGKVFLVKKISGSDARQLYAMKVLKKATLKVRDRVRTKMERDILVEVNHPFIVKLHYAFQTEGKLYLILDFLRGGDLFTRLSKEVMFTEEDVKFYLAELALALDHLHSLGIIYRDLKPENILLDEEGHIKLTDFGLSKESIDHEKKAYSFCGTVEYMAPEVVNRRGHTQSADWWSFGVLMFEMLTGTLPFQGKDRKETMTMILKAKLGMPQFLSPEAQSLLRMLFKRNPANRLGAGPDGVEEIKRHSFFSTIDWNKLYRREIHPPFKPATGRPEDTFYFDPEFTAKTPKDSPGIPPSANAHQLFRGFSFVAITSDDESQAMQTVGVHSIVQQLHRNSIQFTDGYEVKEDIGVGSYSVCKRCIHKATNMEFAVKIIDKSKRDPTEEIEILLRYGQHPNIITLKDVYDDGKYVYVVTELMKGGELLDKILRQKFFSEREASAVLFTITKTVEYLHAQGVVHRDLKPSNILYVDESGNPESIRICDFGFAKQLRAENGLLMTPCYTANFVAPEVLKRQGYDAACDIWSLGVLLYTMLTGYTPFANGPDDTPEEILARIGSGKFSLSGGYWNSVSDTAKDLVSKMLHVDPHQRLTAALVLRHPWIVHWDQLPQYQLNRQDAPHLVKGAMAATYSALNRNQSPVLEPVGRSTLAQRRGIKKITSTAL
Sequence of Epidermal growth factor receptor (Homo sapiens) (P00533 whole entry): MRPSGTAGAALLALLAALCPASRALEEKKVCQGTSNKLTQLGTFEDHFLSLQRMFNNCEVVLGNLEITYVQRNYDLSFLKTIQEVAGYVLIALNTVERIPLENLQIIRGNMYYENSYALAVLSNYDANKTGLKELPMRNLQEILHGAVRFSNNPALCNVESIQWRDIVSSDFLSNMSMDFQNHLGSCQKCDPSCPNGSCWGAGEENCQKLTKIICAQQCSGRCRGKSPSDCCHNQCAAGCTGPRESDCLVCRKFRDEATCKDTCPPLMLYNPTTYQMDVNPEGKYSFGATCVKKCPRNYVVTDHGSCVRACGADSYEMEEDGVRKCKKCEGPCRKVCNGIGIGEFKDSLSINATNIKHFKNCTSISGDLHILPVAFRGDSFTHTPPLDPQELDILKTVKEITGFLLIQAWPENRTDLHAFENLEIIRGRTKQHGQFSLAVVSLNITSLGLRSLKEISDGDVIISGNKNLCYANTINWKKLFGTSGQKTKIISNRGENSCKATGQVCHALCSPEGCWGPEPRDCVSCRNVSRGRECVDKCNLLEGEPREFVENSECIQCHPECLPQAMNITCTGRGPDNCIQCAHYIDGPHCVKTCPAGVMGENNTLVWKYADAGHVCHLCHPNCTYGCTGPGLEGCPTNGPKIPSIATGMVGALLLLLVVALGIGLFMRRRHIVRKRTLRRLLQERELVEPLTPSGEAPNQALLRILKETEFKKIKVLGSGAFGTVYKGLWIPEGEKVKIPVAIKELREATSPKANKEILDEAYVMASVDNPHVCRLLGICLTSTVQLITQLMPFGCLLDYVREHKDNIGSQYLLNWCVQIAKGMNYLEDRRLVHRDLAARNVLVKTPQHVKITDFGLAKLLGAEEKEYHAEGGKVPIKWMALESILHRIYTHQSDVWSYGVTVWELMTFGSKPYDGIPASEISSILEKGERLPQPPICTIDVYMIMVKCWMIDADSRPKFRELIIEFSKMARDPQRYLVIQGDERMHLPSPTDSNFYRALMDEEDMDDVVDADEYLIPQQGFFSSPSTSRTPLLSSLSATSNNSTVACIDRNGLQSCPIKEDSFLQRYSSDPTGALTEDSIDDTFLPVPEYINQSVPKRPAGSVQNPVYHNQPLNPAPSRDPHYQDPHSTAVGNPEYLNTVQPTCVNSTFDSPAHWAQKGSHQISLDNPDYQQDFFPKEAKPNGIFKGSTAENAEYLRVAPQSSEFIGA
Sequence of Aurora kinase B (Homo sapiens) (Q96GD4 whole entry): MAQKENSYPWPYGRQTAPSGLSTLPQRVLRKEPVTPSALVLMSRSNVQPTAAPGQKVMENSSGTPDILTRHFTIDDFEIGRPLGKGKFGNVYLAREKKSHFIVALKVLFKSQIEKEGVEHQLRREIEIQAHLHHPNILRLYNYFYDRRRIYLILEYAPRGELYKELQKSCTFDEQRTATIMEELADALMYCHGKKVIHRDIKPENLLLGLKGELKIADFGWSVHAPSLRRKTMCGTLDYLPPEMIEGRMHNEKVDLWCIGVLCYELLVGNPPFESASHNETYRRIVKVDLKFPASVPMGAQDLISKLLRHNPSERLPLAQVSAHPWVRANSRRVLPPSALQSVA
Sequence of Sigma non-opioid intracellular receptor 1 (Homo sapiens) (Q99720 whole entry): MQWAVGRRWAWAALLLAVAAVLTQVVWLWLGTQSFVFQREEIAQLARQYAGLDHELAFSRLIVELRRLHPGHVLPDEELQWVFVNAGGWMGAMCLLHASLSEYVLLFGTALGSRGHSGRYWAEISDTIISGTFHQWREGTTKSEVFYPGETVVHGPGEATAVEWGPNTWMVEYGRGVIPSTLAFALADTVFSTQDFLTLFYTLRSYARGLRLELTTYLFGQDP

CC1(C)Cn2nc(-c3ccc(F)cn3)c(-c3ccnc4[nH]ncc34)c2CO1
inactive: [1] 5% | [2] -1% | [3] 12% | [4] 1% | [5] -10% | [6] -4% | [7] 4% | [8] -2% | [9] -5% | [10] 2% | [11] -7% | [12] 96% | Homo sapiens 2% | [13] -6% | [14] 10% | [15] 0% | [16] -8% | [17] 17% | [18] 0% | [19] 14% | [20] -6% | [21] 1% | [22] 15% | [23] 2% | [24] 20% | [25] 13% | [26] -4% | [27] 7% | [28] -8% | [29] 2% | [30] 24% | [31] 2% | [32] 0% | [33] 13% | [34] 4% | [35] 16% | [36] 14% | [37] 13% | [38] 20% | [39] -9% | [40] -4% | [41] 18% | [42] 43% | [43] 50% | [44] 10% | [45] 13% | [46] 0% | [47] 33.4% | [48] -2.78% | [49] -5.3% | [50] -3% | [51] 15.1%
